The target of assay [1] is T1, Nitric oxide synthase, inducible (Homo sapiens, UniProt P35228). In words: Compound was evaluated for the Inhibition of induced isoform of Inducible nitric oxide synthase at 100 uM concentration.
Assay [2] deals with T2, Nitric oxide synthase 3 (Homo sapiens) (UniProt P29474).
T2 sequence (whole entry): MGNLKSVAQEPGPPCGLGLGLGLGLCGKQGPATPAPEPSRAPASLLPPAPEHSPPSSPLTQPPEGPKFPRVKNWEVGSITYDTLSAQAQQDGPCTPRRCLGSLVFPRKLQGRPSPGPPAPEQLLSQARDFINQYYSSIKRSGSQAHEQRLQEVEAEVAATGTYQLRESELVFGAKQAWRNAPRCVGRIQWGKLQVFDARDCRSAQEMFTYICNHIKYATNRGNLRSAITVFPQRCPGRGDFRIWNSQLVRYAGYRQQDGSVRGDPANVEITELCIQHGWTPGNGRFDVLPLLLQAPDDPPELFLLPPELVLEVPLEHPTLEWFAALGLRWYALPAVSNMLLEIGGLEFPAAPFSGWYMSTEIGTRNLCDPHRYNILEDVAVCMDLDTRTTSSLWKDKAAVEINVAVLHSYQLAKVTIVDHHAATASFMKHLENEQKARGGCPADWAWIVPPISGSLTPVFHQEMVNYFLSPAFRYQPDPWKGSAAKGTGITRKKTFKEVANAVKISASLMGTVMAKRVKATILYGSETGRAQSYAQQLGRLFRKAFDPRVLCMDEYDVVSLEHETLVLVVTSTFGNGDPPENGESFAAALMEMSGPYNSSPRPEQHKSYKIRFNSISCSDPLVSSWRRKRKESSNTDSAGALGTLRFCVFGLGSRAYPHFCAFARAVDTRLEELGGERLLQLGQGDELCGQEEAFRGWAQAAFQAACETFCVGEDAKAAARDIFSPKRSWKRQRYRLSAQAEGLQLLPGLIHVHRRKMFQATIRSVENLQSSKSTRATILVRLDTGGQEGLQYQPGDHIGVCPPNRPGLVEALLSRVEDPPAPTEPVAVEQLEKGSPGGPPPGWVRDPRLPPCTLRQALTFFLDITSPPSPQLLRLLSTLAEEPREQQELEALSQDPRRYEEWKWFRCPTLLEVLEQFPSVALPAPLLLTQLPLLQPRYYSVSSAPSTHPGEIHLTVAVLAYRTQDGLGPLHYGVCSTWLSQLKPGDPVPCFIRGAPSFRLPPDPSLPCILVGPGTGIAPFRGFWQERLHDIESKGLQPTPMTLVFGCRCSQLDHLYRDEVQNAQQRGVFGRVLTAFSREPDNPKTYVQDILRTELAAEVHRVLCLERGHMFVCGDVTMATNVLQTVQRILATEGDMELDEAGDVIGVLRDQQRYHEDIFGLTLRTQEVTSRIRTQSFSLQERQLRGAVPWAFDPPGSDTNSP
In words: Compound was evaluated for the Inhibition of endothelial isoform of Endothelial nitric oxide synthase (eNOS)enzyme at 100 uM concentration.

Assay [3] concerns the target T3, Nitric oxide synthase 1 (Homo sapiens, UniProt P29475). In words: Compound was evaluated for the Inhibition of Neuronal nitric oxide synthase at 100 uM concentration.
The target in another assay is T4, Nitric oxide synthase 3 (Homo sapiens, UniProt P29474).
T4 sequence (P29474 whole entry): T2 sequence (whole entry)
In words: Compound was evaluated for the Inhibition of endothelial isoform of Endothelial nitric oxide synthase (eNOS)enzyme.

Assay [4] deals with T1, Nitric oxide synthase, inducible. The assay is described as follows: Compound was evaluated for the Inhibition of induced isoform of Inducible nitric oxide synthase.
The target of assay [5] is Nitric oxide synthase (inducible and endothelial) (Homo sapiens) (UniProt P35228+P29474). In words: Selectivity index determined by the ratio of IC50 of eNOS to the iNOS. Type of assay: protein assay.
Assay [6] concerns the target Nitric oxide sythases; iNOS & nNOS (Homo sapiens) (UniProt P29475+P35228). The assay is described as follows: Selectivity index determined by the ratio of IC50 of nNOS to the iNOS. In kind it is protein assay.
The target of assay [7] is T3, Nitric oxide synthase 1. The assay is described as follows: Compound was evaluated for the Inhibition of Neuronal nitric oxide synthase.

Molecules are shown by their SMILES. pIC50: −log10 of the molar value.

The values that follow come from ChEMBL document CHEMBL1131487, “Acetamidine lysine derivative, N-(5(S)-amino-6,7-dihydroxyheptyl)ethanimidamide dihydrochloride: a highly selective inhibitor of human inducible nitric oxide synthase” (J Med Chem, 1998).

T1 sequence (P35228 whole entry, canonical isoform): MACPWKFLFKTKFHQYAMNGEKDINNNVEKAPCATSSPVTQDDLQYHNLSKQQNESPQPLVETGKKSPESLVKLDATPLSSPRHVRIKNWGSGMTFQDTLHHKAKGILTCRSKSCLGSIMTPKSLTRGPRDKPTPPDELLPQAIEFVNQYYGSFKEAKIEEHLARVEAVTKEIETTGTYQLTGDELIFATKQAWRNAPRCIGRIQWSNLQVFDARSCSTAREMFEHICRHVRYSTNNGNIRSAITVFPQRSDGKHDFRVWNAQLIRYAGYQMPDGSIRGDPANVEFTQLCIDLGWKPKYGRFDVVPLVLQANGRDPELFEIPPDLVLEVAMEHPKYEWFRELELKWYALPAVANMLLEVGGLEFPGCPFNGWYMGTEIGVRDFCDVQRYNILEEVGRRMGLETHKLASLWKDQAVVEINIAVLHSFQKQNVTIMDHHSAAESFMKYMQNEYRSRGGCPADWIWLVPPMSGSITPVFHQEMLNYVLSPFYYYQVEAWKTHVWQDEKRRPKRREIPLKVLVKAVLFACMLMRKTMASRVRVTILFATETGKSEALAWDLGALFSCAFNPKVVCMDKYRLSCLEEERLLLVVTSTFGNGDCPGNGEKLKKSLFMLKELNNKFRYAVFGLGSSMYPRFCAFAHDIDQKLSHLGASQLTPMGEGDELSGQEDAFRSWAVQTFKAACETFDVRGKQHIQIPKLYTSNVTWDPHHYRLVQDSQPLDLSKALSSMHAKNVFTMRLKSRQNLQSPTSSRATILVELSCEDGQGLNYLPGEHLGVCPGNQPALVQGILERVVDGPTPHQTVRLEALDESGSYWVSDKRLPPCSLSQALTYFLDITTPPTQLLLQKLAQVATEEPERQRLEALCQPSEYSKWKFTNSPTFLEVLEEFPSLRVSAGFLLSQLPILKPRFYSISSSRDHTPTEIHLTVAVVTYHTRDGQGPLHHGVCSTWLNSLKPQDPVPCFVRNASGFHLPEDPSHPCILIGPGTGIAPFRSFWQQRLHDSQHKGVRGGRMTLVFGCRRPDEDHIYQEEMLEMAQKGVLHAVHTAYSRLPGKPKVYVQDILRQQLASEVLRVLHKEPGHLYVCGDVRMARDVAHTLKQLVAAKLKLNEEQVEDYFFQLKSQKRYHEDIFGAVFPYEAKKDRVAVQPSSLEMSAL
Chain of Nitric oxide synthase (inducible and endothelial) (Homo sapiens) (P35228 whole entry, looked up, one chain of several): as the sequence (P35228 whole entry, canonical isoform) above
Chain of Nitric oxide sythases; iNOS & nNOS (Homo sapiens) (P29475 whole entry, looked up): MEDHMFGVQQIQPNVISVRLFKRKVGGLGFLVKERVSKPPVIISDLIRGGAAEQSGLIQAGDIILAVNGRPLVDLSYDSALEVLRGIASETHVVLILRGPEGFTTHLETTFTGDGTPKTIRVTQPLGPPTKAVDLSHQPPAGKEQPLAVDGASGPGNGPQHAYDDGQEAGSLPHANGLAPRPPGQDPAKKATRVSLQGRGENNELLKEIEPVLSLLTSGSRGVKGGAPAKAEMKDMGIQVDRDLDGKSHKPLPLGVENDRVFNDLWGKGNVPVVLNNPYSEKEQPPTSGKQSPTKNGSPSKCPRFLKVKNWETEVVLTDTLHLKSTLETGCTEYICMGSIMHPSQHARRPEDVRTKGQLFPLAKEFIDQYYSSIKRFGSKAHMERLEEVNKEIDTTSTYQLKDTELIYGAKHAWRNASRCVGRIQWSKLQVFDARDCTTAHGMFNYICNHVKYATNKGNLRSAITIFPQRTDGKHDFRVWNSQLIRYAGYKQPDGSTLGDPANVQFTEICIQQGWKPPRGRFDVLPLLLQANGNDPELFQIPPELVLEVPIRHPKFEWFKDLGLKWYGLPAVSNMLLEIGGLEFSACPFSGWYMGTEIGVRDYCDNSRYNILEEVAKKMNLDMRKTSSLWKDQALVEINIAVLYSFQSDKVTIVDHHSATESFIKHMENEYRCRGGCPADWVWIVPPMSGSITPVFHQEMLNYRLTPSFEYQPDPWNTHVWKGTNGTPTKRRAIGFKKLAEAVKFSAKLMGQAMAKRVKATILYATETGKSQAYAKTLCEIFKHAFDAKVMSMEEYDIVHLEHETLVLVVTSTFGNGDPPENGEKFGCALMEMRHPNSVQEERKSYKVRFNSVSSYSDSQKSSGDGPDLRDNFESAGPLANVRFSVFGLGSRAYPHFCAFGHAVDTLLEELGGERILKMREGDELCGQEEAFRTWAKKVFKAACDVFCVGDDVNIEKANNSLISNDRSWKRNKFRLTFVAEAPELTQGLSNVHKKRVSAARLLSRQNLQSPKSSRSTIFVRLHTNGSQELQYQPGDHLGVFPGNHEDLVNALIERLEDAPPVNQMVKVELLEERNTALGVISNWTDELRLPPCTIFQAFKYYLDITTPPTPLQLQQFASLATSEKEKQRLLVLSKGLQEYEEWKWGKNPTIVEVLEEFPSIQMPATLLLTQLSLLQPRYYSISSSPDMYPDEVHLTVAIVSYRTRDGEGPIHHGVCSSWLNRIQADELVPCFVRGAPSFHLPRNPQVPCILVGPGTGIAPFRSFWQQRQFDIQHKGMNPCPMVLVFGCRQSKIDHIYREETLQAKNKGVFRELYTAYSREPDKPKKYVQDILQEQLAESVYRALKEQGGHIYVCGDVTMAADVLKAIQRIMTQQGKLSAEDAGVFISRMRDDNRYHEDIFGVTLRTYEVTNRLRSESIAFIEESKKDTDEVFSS
Chain of Nitric oxide sythases; iNOS & nNOS (Homo sapiens) (P35228 whole entry, looked up): as the sequence (P35228 whole entry, canonical isoform) above
T3 sequence (P29475 whole entry): as the sequence (P29475 whole entry, looked up) above

`CC(=N)NCCCC[C@H](N)[C@H](O)CO`: the inhibition (commonly how much of the control response was suppressed) was found to be 49% in assay [1], 0% in assay [2] and 13% against Nitric oxide synthase 1 [3].

Consider `CC(=N)NCCCC[C@H](N)C(=O)O` [L-NIL], for which the pIC50 (in general, the negative decadic logarithm of the IC50, by convention in mol/L) was 3.86 against Nitric oxide synthase 3 and 5.30 in assay [4]. The Selectivity index is 30 in assay [5] and 12 in assay [6].

For the molecule `CC(=N)NCCCC[C@H](N)[C@@H](O)CO`, the pIC50 is 3.82 against Nitric oxide synthase 1 [7], 2.07 at Nitric oxide synthase 3 and 4.92 in assay [4]. The Selectivity index in assay [5] amounted to 700; in assay [6], 12.
